# Measurements: patent US20190100534A1, “Cephem Compounds with Latent Reactive Groups” (Gladius Pharmaceuticals, Inc., priority 2017, published 2019)
# Columns and labels:
# Assay in all cases: MIC determination
# Assay type in all cases: cell-based
# [1] = tested on: Pseudomonas aeruginosa PA (URMC-2); details: Pseudomonas aeruginosa; PA (URMC-2); CAMH broth, 20 μM Apo-Transferrin, 37° C., 18 hours; read-out: Minimum Inhibitory Concentrations, PA (URMC-2)
# In short: (§1)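 Growth inhibition was judged by well clarity after 18 h at 37 °C in transferrin-supplemented (20 μM apo form) CAMH. Standardized suspensions (0.08-0.1 OD600) were added within 30 min of preparation.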
# [2] = tested on: Pseudomonas aeruginosa PA-RR-(G7304100); details: Pseudomonas aeruginosa; PA-RR-(G7304100); CAMH broth, 20 μM Apo-Transferrin, 37° C., 18 hours; read-out: Minimum Inhibitory Concentrations, PA-RR-(G7304100)
# In short: as §1
# [3] = tested on: Pseudomonas aeruginosa PA (URMC-3); details: Pseudomonas aeruginosa; PA (URMC-3); CAMH broth, 20 μM Apo-Transferrin, 37° C., 18 hours; read-out: Minimum Inhibitory Concentrations, PA (URMC-3)
# In short: as §1
# [4] = tested on: Pseudomonas aeruginosa PA-RR-(G8062859); details: Pseudomonas aeruginosa; PA-RR-(G8062859); CAMH broth, 20 μM Apo-Transferrin, 37° C., 18 hours; read-out: Minimum Inhibitory Concentrations, PA-RR-(G8062859)
# In short: as §1
# [5] = tested on: Pseudomonas aeruginosa PA-RR-(980151052); details: Pseudomonas aeruginosa; PA-RR-(980151052); CAMH broth, 20 μM Apo-Transferrin, 37° C., 18 hours; read-out: Minimum Inhibitory Concentrations, PA-RR-(980151052)
# In short: as §1
# [6] = tested on: Pseudomonas aeruginosa (PA); details: Pseudomonas aeruginosa; PA; CAMH broth, 20 μM Apo-Transferrin, 37° C., 18 hours; read-out: Minimum Inhibitory Concentrations, PA
# In short: as §1
SMILES,MIC [1],MIC [2],MIC [3],MIC [4],MIC [5],MIC [6]
"Cn1c[n+](Cc2ccc(C=CC3=C(C(=O)O)N4C(=O)[C@@H](NC(=O)/C(=N\OC(C)(C)C(=O)O)c5csc(N)n5)[C@H]4SC3)cc2)cc1C(=O)Nc1ccc(O)c(O)c1 (mixture of isomers) [Compound 411, 3-(4-((E/Z)-2-((6R,7R)-7-((Z)-2-(2-aminothiazol-4-yl)-2-(((2-carboxypropan-2-yl)oxy)imino)acetamido)-2-carboxy-8-oxo-5-thia-1-azabicyclo[4.2.0]oct-2-en-3-yl)vinyl)benzyl)-5-((3,4-dihydroxyphenyl)carbamoyl)-1-methyl-1H-imidazol-3-ium]",4 µg/mL,1 µg/mL,0.5 µg/mL,2 µg/mL,8 µg/mL,8 µg/mL
"CC(C)(O/N=C(\C(=O)N[C@@H]1C(=O)N2C(C(=O)O)=C(C=Cc3ccc(C[n+]4cccc(-c5ccc(O)c(O)c5)c4)cc3)CS[C@H]12)c1csc(N)n1)C(=O)O (mixture of isomers) [Compound 413, 1-(4-((E/Z)-2-((6R,7R)-7-((Z)-2-(2-aminothiazol-4-yl)-2-(((2-carboxypropan-2-yl)oxy)imino)acetamido)-2-carboxy-8-oxo-5-thia-1-azabicyclo[4.2.0]oct-2-en-3 yl)vinyl)benzyl)-3-(3,4-dihydroxyphenyl)pyridin-1-ium]",4 µg/mL,≤ 0.06 µg/mL,0.13 µg/mL,2 µg/mL,4 µg/mL,4 µg/mL
"Cc1c[n+](Cc2ccc(C=CC3=C(C(=O)O)N4C(=O)[C@@H](NC(=O)/C(=N\OC(C)(C)C(=O)O)c5csc(N)n5)[C@H]4SC3)cc2)ccc1-c1ccc(O)c(O)c1 (mixture of isomers) [Compound 422, 1-(4-((E/Z)-2-((6R,7R)-7-((Z)-2-(2-aminothiazol-4-yl)-2-(((2-carboxypropan-2-yl)oxy)imino)acetamido)-2-carboxy-8-oxo-5-thia-1-azabicyclo[4.2.0]oct-2-en-3-yl)vinyl)benzyl)-4-(3,4-dihydroxyphenyl)-3-methylpyridin-1-ium]",4 µg/mL,≤ 0.06 µg/mL,≤ 0.06 µg/mL,2 µg/mL,8 µg/mL,8 µg/mL
"CC(C)(O/N=C(\C(=O)N[C@@H]1C(=O)N2C(C(=O)O)=C(C=Cc3ccc(C[N+]4(C)Cc5cc(O)c(O)cc5C4)cc3)CS[C@H]12)c1csc(N)n1)C(=O)O (mixture of isomers) [Compound 424, 2-(4-((E/Z)-2-((6R,7R)-7-((Z)-2-(2-aminothiazol-4-yl)-2-(((2-carboxypropan-2-yl)oxy)imino)acetamido)-2-carboxy-8-oxo-5-thia-1-azabicyclo[4.2.0]oct-2-en-3-yl)vinyl)benzyl)-5,6-dihydroxy-2-methylisoindolin-2-ium]",4 µg/mL,≤ 0.06 µg/mL,0.13 µg/mL,2 µg/mL,4 µg/mL,2 µg/mL
"CC(C)(O/N=C(\C(=O)N[C@@H]1C(=O)N2C(C(=O)O)=C(C=Cc3ccc(C[N+](C)(C)Cc4ccc(O)c(O)c4)cc3)CS[C@H]12)c1csc(N)n1)C(=O)O (mixture of isomers) [Compound 426, N-(4-((E/Z)-2-((6R,7R)-7-((Z)-2-(2-aminothiazol-4-yl)-2-(((2-carboxypropan-2-yl)oxy)imino)acetamido)-2-carboxy-8-oxo-5-thia-1-azabicyclo[4.2.0]oct-2-en-3-yl)vinyl)benzyl)-1-(3,4-dihydroxyphenyl)-N,N-dimethylmethanaminium]",4 µg/mL,0.25 µg/mL,64 µg/mL,2 µg/mL,4 µg/mL,4 µg/mL
"CC(C)(O/N=C(\C(=O)N[C@@H]1C(=O)N2C(C(=O)O)=C(C=Cc3ccc(C[n+]4ccc(NC(=O)c5ccc(O)c(O)c5)cc4)cc3)CS[C@H]12)c1csc(N)n1)C(=O)O (mixture of isomers) [Compound 427, 1-(4-((E/Z)-2-((6R,7R)-7-((Z)-2-(2-aminothiazol-4-yl)-2-(((2-carboxypropan-2-yl)oxy)imino)acetamido)-2-carboxy-8-oxo-5-thia-1-azabicyclo[4.2.0]oct-2-en-3-yl)vinyl)benzyl)-4-(3,4-dihydroxybenzamido)pyridin-1-ium]",0.06 µg/mL,≤ 0.06 µg/mL,0.25 µg/mL,0.25 µg/mL,0.5 µg/mL,0.06 µg/mL
"CC(C)(O/N=C(\C(=O)N[C@@H]1C(=O)N2C(C(=O)O)=C(C=Cc3ccc(C[N+](C)(C)Cc4ccc(O)c(O)c4Cl)cc3)CS[C@H]12)c1csc(N)n1)C(=O)O (mixture of isomers) [Compound 434, N-(4-((E/Z)-2-((6R,7R)-7-((Z)-2-(2-aminothiazol-4-yl)-2-(((2-carboxypropan-2-yl)oxy)imino)acetamido)-2-carboxy-8-oxo-5-thia-1-azabicyclo[4.2.0]oct-2-en-3-yl)vinyl)benzyl)-1-(2-chloro-3,4-dihydroxyphenyl)-N,N-dimethylmethanaminium]",8 µg/mL,2 µg/mL,16 µg/mL,2 µg/mL,4 µg/mL,4 µg/mL
"CC(C)(O/N=C(\C(=O)N[C@@H]1C(=O)N2C(C(=O)O)=C(C=Cc3ccc(C[N+](C)(C)Cc4cc(O)c(O)c(Cl)c4)cc3)CS[C@H]12)c1csc(N)n1)C(=O)O (mixture of isomers) [Compound 436, N-(4-((E/Z)-2-((6R,7R)-7-((Z)-2-(2-aminothiazol-4-yl)-2-(((2-carboxypropan-2-yl)oxy)imino)acetamido)-2-carboxy-8-oxo-5-thia-1-azabicyclo[4.2.0]oct-2-en-3-yl)vinyl)benzyl)-1-(3-chloro-4,5-dihydroxyphenyl)-N,N-dimethylmethanaminium]",8 µg/mL,4 µg/mL,64 µg/mL,5 µg/mL,4 µg/mL,8 µg/mL
